Results taken from patent US5342851A, “Substituted thiazole derivatives useful as platelet aggregation inhibitors” (McNeil-PPC, Inc., priority 1992, dated 1994).
Where a name gives a salt, the structure may show the parent alone. Read-outs that look alike come from different tables or passages of the source.

Assays:
[1] = tested on: platelets (gel-filtered platelet rich plasma); assay: Platelet Aggregation Inhibition Activity (agonist thrombin or ADP, light transmission); type: cell-based; conditions: for inhibition at 20 µM: Homo sapiens, thrombin or ADP agonist, read-out: Aggregation (percentage increase in light transmission)
Description: The percentage of platelet aggregation is calculated as an increase in light transmission of drug treated platelet concentrate versus control treated platelet concentrate. Blood is obtained from drug free, normal donors into tubes containing 0.13M sodium citrate (two sources are routinely used: platelet concentrate obtained from Biological Specialty Corp., Lansdale, Pa. or whole blood obtained from donors). Platelet rich plasma (PRP) is collected by centrifugation of the concentrate or whole blood at 130×g for 15 minutes at 25° C. The PRP (5 mL) is gel filtered through Sepharose 2B (bed volume 50 mL), and the platelet count is adjusted to 2×10^7 platelets per sample. The following constituents are added to a siliconized cuvette: 250 μL of the concentrated platelet filtrate, 100 μL of Tyrode's buffer (0.14M NaCl, 0.0027M KCl, 0.012M NaHCO3, 0.76 mM Na2 HPO4, 0.0055M glucose and 2 mg/mL BSA pH 7.4), 50 μL of 2 mM calcium and test drug (50 mL).
Aggregation is monitored in a dual channel Chrono-log Aggregometer for three minutes following the addition of agonist (thrombin 50 μL of 1 unit/mL, or ADP 50 μL of 100 μM). The final assay volume is 500 μL. The reaction takes place at 37° C. The peak aggregation response is calculated as the increase in light transmission units over a three minute period. The difference of the increase in light transmission between control and drug treated platelets is then expressed as a percent of the nondrug treated controls. […] A percentage increase in light transmission indicates platelet aggregation inhibition activity for the tested compound.

[2] = tested on: activated platelets (125I-fibrinogen binding); assay: Fibrinogen Binding (125I-fibrinogen binding to activated platelets); conditions: read-out: Binding (IC50, concentration of compound which provides 50% fibrinogen binding); thrombin-stimulated platelets; 0.15 μM 125I-fibrinogen
Description: The compounds of the invention as identified above are evaluated for platelet aggregation inhibition activity as indicated by the percentage of nonaggregated platelets which are available for binding in accordance with the following procedure.
Briefly, 40 mL of PRP (obtained from Biological Specialty Corp., Lansdale, Pa.) are centrifuged at 120×g to remove contaminating red cells. Aspirin (50 μM) is added and the PRP is incubated at 37° C. for 20 minutes. […] Platelets are concentrated by a 300×g centrifugation (10 minutes) and the pellet is resuspended in 4 mL. of Tyrode's buffer. The platelet suspension (4 mL) is gel-filtered through a Sepharose-2B column (50 mL bed volume). […] The binding reaction is performed in polystyrene tubes (final volume […]). Reagents are added in the following order: 80 mL of Tyrode's buffer, 50 mL of CaCl2 (final concentration (f.c.) […]) and 50 mL of thrombin (f.c. 0.1 unit/mL). The platelet suspension is then added and the mixture is allowed to incubate at room temperature for 2 minutes. Hirudin (50 mL, f.c. 0.5 unit/mL) is immediately added to prevent the catalytic activity of thrombin. […] The mixture is incubated for 10 minutes at room temperature. To terminate the binding reaction the platelets are sedimented (10,000×g for 3 minutes) through silicone oil (3:1 hi-phenol 550/methyl silicone 200, W. F. Nye, Inc., New Bedford, Mass.), in an Eppendorf centrifuge.
The amount of platelet radioactivity measured in the presence of nonlabeled fibrinogen (4 mg/mL) is considered the nonspecific binding. All samples are repeated in triplicate.
Positive percentages of fibrinogen binding indicates higher activity for inhibiting platelet aggregation since only non-aggregated or free platelets are available for fibrinogen binding.

[3] = read-out: Aggregation (IC50, concentration at which the increase in light transmission equals 50%), thrombin or ADP agonist, 37° C., three minutes

| SMILES | IC50 [1, 3] [µM] | IC50 [2] [µM] | IC50 ([1]; read-out: Aggregation (IC50, concentration at which the increase in light transmission equals 50%)) [µM] | inhibition at 20 µM [1] [%] |
| --- | --- | --- | --- | --- |
| N=C(N)NCCCNC(=O)c1cnn(-c2nc(-c3cccc(C(F)(F)F)c3)cs2)c1C(F)(F)F [Example 128, 2-[4-(3-Guanidinopropylcarbamoyl)-5-(trifluoromethyl)-pyrazol-1-yl]-4-(3-trifluoromethylphenyl)thiazole Nitrate] | – | 17.5 | 118 | – |
| CCN(CC)CCCNC(=O)c1ccc(-c2csc(-c3ccc(C(F)(F)F)cc3)n2)cc1 [Example 150] | 5 | 4.4 | – | – |
| Cc1ccc(-c2nc(-c3ccc(C(=O)NCCCN(C)C)cc3)cs2)cc1 [Example 154] | 7.2 | 10 | – | – |
| CN(C)CCCNC(=O)c1ccc(-c2csc(-c3ccc(C(C)(C)C)cc3)n2)cc1 [Example 156] | 14.2 | 12 | – | – |
| O=C(NCCN1CCCCC1)c1ccc(-c2csc(-c3ccccc3)n2)cc1 [Example 158] | 8.7 | 5.2 | – | – |
| Cc1ccc(-c2nc(-c3ccc(C(=O)NCCCN4CCCC4=O)cc3)cs2)cc1 [Example 170] | – | 10.8 | – | 90 |
| NCCNC(=O)c1ccc(-c2csc(-c3ccc(C(F)(F)F)cc3)n2)cc1 [Example 196] | 3.7 | 6 | – | – |
| O=C(NCCCNC1CCCCC1)c1ccc(-c2csc(-c3ccc(Cl)cc3)n2)cc1 [Example 213] | 10 | 9.2 | – | – |
| CCCNCCCNC(=O)c1ccc(-c2csc(-c3ccc(C(F)(F)F)cc3)n2)cc1 [Example 221] | – | 5.8 | – | 85 |
| CCCCNCCCNC(=O)c1ccc(-c2csc(-c3ccc(OC)cc3)n2)cc1 [Example 226] | 3.8 | 4.3 | – | – |

Continued, in another order:

| IC50 [1, 3] [µM] | IC50 [2] [µM] | SMILES | IC50 ([1]; read-out: Aggregation (IC50, concentration at which the increase in light transmission equals 50%)) [µM] | inhibition at 20 µM [1] [%] |
| --- | --- | --- | --- | --- |
| 17 | 17 | Cc1ccc(-c2csc(-n3ncc(C(=O)NCCCN)c3C(F)(F)F)n2)cc1 [Example 123] | – | – |
| 3.2 | 5.5 | NCCCNC(=O)c1cnn(-c2nc(-c3cccc(C(F)(F)F)c3)c(Br)s2)c1C(F)(F)F [Example 124] | – | – |
| 21 | 17 | FC(F)(F)c1cccc(-c2csc(-n3ncc(COCCCN4CCCCC4)c3C(F)(F)F)n2)c1 [Example 136, 2-[4-[3-(N-Piperidino)propoxymethyl]-5-(trifluoromethyl)pyrazol-1-yl]-4-(3-trifluoromethylphenyl)thiazole Oxalate] | – | – |
| 16.7 | 19 | CCN(CC)CCCNC(=O)c1ccc(-c2csc(-c3ccc(C)cc3)n2)cc1 [Example 151] | – | – |
| 15.3 | 4.3 | CCN(CC)CCCNC(=O)c1ccc(-c2csc(-c3ccc(C(C)(C)C)cc3)n2)cc1 [Example 153] | – | – |
| – | 1.8 | CN(C)CCNC(=O)c1ccc(-c2csc(-c3ccc(C(F)(F)F)cc3)n2)cc1 [Example 174] | – | 85 |
| 4 | 2.5 | CCN(CC)CCNC(=O)c1ccc(-c2csc(-c3ccc(C)cc3)n2)cc1 [Example 176] | – | – |
| 5.8 | 2.7 | CCN(CC)CCCCNC(=O)c1ccc(-c2csc(-c3ccc(Cl)cc3)n2)cc1 [Example 179] | – | – |
| 5.5 | 7.8 | O=C(NCCCBr)c1ccc(-c2csc(-c3ccc(C(F)(F)F)cc3)n2)cc1 [Example 209] | – | – |
| 5 | 3.4 | O=C(NCCCN1CCCCC1)c1ccc(-c2csc(-c3ccc(Cl)cc3)n2)cc1 [Example 211] | – | – |
| 6.1 | 3.3 | CCCCNCCCNC(=O)c1ccc(-c2csc(-c3ccc(Cl)cc3)n2)cc1 [Example 224] | – | – |
